The values below come from US7825090B2, “Use of ghrelin and unacylated ghrelin compositions for treating insulin resistance” (Alizé Pharma SAS, priority 2004, dated 2010).

Data set [1] is described as follows: Serum total and acylated ghrelin concentrations after i.v. bolus injection (radioimmunoassay). Set-up: species or system human. To be noted: in vivo, iv. The source says: (§1) Eight male subjects with a pituitary insufficiency but otherwise healthy, were asked to participate (range 21-69 yrs (age 55±10; mean±standard error of mean or SEM)) and a body mass index of 29.4±2.8 (mean±SEM). […] All subjects were admitted at the Clinical Research Unit. No alcoholic beverages were allowed from the day prior to admission until the end of the study. Also, all subjects were asked to skip the administration of their GH replacement every night prior to each of the 5 admission days. All subjects gave their written informed consent to participate in the study, which had been approved the hospital's Ethical Committee.
All subjects underwent the following five testing sessions, each after an overnight fast, in random order and at least 1 week apart: 1) placebo (saline 3 ml iv). 2) acylated ghrelin (Neosystem S.A.; Strasbourg, France; 1.0 μg/kg iv, using a bacterial filter system). […]
Acylated and total ghrelin concentrations were measured, using a commercially available radioimmunoassay (Linco research Inc. Missouri, USA). […] The lowest level of ghrelin that can be detected by this assay is […] when using a 100 μl sample size. […]
(§2) Differences between the several study days were calculated, using a Newman-Keuls Multiple Comparison one-way ANOVA test (GraphPad Prism 4 for Windows; GraphPad Inc. USA). […] Areas under the curve were calculated using the trapezoid rule.

For data set [2], the system named is GH deficient subjects. As to the kind of experiment: Serum glucose concentrations after i.v. AG, UAG, AG+GH or AG+UAG, before and after a standard lunch. In kind it is in vivo, human. To be noted: for effect on serum glucose levels after a standard lunch: GH deficient subjects; for effect on serum glucose levels: first two hours after i.v. administration, before lunch, fasting.
Text: as §1
(§3) All subjects underwent the following five testing sessions, each after an overnight fast, in random order and at least 1 week apart: 1) placebo (saline 3 ml iv). 2) acylated ghrelin (Neosystem S.A.; Strasbourg, France; 1.0 μg/kg iv, using a bacterial filter system). 3) unacylated ghrelin (Neosystem S.A.; Strasbourg, France; 1.0 μg/kg iv, using a filter system). 4) acylated ghrelin (1.0 μg/kg iv) but this time after the normal GH replacement dose was administered 15 minutes before. 5) acylated ghrelin in combination with unacylated ghrelin (both 1.0 μg/kg iv, but via separate injection sites). All tests started in the morning at 09:30 am, 30′ after one or two indwelling catheters had been placed into an antecubital vein, kept patent by slow infusion of isotonic saline.
(§4) This meal was taken by all subjects all tests days.
(§5) Insulin was assessed with a radioimmunoassay (Medgenix Diagnostics, Brussels, Belgium; intra- and interassay coefficient of variation (CV) 13.7 and 8.0% respectively). Glucose was assessed with an automatic hexokinase method (Roche, Almere, The Netherlands). Free fatty acids were determined with an enzymatic […] method (Wako Chemicals GmbH, Neuss, Germany; intra- and interassay CV 1.1 and 4.1% respectively).
(§6) Differences between the several study days were calculated, using a Newman-Keuls Multiple Comparison one-way ANOVA test (GraphPad Prism 4 for Windows; GraphPad Inc. USA). P-values <0.05 were considered significant. Areas under the curve were calculated using the trapezoid rule.

Data set [3] deals with GH deficient subjects. As to the kind of experiment: Serum insulin concentrations after i.v. AG, UAG, AG+GH or AG+UAG, before and after a standard lunch. It is filed as in vivo, human. To be noted: for effect on serum insulin levels after a standard lunch: GH deficient subjects; for effect on serum insulin levels: first two hours after i.v. administration, before lunch, fasting.
Text: as §1, §3, §4, §5, §6

Data set [4] has as its system GH deficient subjects. As to the kind of experiment: Serum free fatty acid concentrations after i.v. AG, UAG, AG+GH or AG+UAG, before and after a standard lunch. It is filed as in vivo, human. To be noted: compounds administered 2-6 hrs before.
Text: as §1, with “Committee. […]” for “Committee.”
as §5, §2

Data set [5] deals with GH deficient subjects. Kind of data set: Insulin sensitivity judged from areas under the curve of glucose, insulin and FFA (FIG. 8, FIG. 9). In kind it is in vivo, human. The source says: Eight male subjects with a pituitary insufficiency but otherwise healthy, were asked to participate (range 21-69 yrs (age 55±10; mean±standard error of mean or SEM)) and a body mass index of 29.4±2.8 (mean±SEM). […] All subjects were admitted at the Clinical Research Unit. No alcoholic beverages were allowed from the day prior to admission until the end of the study. Also, all subjects were asked to skip the administration of their GH replacement every night prior to each of the 5 admission days. All subjects gave their written informed consent to participate in the study, which had been approved the hospital's Ethical Committee. […] Insulin was assessed with a radioimmunoassay (Medgenix Diagnostics, Brussels, Belgium; intra- and interassay coefficient of variation (CV) 13.7 and 8.0% respectively). Glucose was assessed with an automatic hexokinase method (Roche, Almere, The Netherlands). Free fatty acids were determined with an enzymatic […] method (Wako Chemicals GmbH, Neuss, Germany; intra- and interassay CV 1.1 and 4.1% respectively). Differences between the several study days were calculated, using a Newman-Keuls Multiple Comparison one-way ANOVA test (GraphPad Prism 4 for Windows; GraphPad Inc. USA). […] Areas under the curve were calculated using the trapezoid rule.

Data set [6] relates to cloned cells. To be noted: cited from earlier work.
For data set [7], the system named is GH secretion. The note with it: compared with Ghrelin-28; cited from earlier work.

“Also recorded” adds a separate entry of the source. No end group written: not given here. *: point of attachment. Octanoyl = CCCCCCCC(=O)*

Take `CCCCCCCC(=O)OC[C@H](NC(=O)[C@H](CO)NC(=O)CN)C(=O)N[C@@H](Cc1ccccc1)C(=O)N[C@@H](CC(C)C)C(=O)N[C@@H](CO)C(=O)N1CCC[C@H]1C(=O)N[C@@H](CCC(=O)O)C(=O)N[C@@H](Cc1cnc[nH]1)C(=O)N[C@@H](CCC(N)=O)C(=O)N[C@@H](CCCNC(=N)N)C(=O)N[C@H](C(=O)N[C@@H](CCC(N)=O)C(=O)N[C@@H](CCC(N)=O)C(=O)N[C@@H](CCCNC(=N)N)C(=O)N[C@@H](CCCCN)C(=O)N[C@@H](CCC(=O)O)C(=O)N[C@@H](CO)C(=O)N[C@@H](CCCCN)C(=O)N[C@@H](CCCCN)C(=O)N1CCC[C@H]1C(=O)N1CCC[C@H]1C(=O)N[C@@H](C)C(=O)N[C@@H](CCCCN)C(=O)N[C@@H](CC(C)C)C(=O)N[C@@H](CCC(N)=O)C(=O)N1CCC[C@H]1C(=O)N[C@@H](CCCNC(=N)N)C(=O)O)C(C)C` [AG]: the “effect on unacylated ghrelin levels” value in data set [1] is reported as “induces an acute increase in unacylated ghrelin levels”. Also, in data set [2], the “effect on serum glucose levels after a standard lunch” value is listed as “increase serum glucose levels significantly” and the “effect on serum glucose levels” value was “induces a significant hyperglycemia”. For the same molecule, the “effect on serum glucose levels” value in data set [2] (listed as acylated ghrelin) was “immediately increases glucose and insulin levels”. For the same molecule, in data set [3], the “effect on serum insulin levels after a standard lunch” value is “increased insulin levels the most”; the “effect on serum insulin levels” value was “immediately increases glucose and insulin levels”. Further, the “effect on serum FFA levels after a standard lunch” value in data set [4] is given as “significantly increased FFA levels after lunch, compared to placebo”. The “duration of decrease in insulin sensitivity after administration” value in data set [5] (after administration of acylated ghrelin) was “at least 6 hours”. The “effect on insulin sensitivity” value in data set [5] (period following lunch, AUC (FIG. 9)) is “decreases insulin sensitivity, compared to placebo”.

`CC(C)C[C@H](NC(=O)[C@H](CCCCN)NC(=O)[C@H](C)NC(=O)[C@@H]1CCCN1C(=O)[C@@H]1CCCN1C(=O)[C@H](CCCCN)NC(=O)[C@H](CCCCN)NC(=O)[C@H](CO)NC(=O)[C@H](CCC(=O)O)NC(=O)[C@H](CCCCN)NC(=O)[C@H](CCCNC(=N)N)NC(=O)[C@H](CCC(N)=O)NC(=O)[C@H](CCC(N)=O)NC(=O)[C@@H](NC(=O)[C@H](CCCNC(=N)N)NC(=O)[C@H](CCC(N)=O)NC(=O)[C@H](Cc1c[nH]cn1)NC(=O)[C@H](CCC(=O)O)NC(=O)[C@@H]1CCCN1C(=O)[C@H](CO)NC(=O)[C@H](CC(C)C)NC(=O)[C@H](Cc1ccccc1)NC(=O)[C@H](CO)NC(=O)[C@H](CO)NC(=O)CN)C(C)C)C(=O)N[C@@H](CCC(N)=O)C(=O)N1CCC[C@H]1C(=O)N[C@@H](CCCNC(=N)N)C(=O)O` [UAG]: in data set [2], the “effect on serum glucose levels after a standard lunch” value is “increase serum glucose levels significantly; also recorded: increases serum glucose levels significantly more than AG” and the “effect on serum glucose levels” value is listed as “to a lesser extent, UAG, induces a significant hyperglycemia”. Moreover, the “effect on serum glucose levels” value in data set [2] (listed as unacylated ghrelin) is given as “This does not occur”. In addition, in data set [3], the “effect on serum insulin levels after a standard lunch” value is reported as “increased insulin levels the most, followed UAG” and the “effect on serum insulin levels” value is recorded as “This does not occur”. For the same molecule, the “effect on serum FFA levels after a standard lunch” value in data set [4] was “could not be observed”.

Turning to “Gly-Ser-[octanoyl]Ser-Phe-Leu-Ser-Pro-Glu-His-Gln-Arg-Val-Gln-Arg-Lys-Glu-Ser-Lys-Lys-Pro-Pro-Ala-Lys-Leu-Gln-Pro-Arg (GSS(Octanoyl)FLSPEHQRVQRKESKKPPAKLQPR; listed as Homo sapiens) [des Gln-14 ghrelin]”, the “Ca2+ fluxes” value in data set [6] was “elicits Ca^2+ fluxes in cloned cells”. In data set [7], the “induction of GH secretion” value was “induces GH secretion with similar potency as Ghrelin-28”.
